Data as given in PMC7922534, “Searching for Peptide Inhibitors of T Regulatory Cell Activity by Targeting Specific Domains of FOXP3 Transcription Factor” (Biomedicines, 2021).

Key:
[1] = tested on: murine CD4+CD25+ Treg cells; test: In vitro Treg inhibition: anti-CD3 stimulated effector T cells co-cultured with Treg cells, tritiated thymidine incorporation; type: cell-based, mouse; details: peptide 50 μM, BALB/c Teff 10^5 + Treg 10^4 cells/well, 3 days, tritiated thymidine
Protocol: (§1) In vitro assays were carried out using (i) the Karpas 299 human cell line (ACC-31, DSMZ, Germany), derived from a human lymphoma with a regulatory T cell profile or (ii) using natural Treg cells isolated from the murine splenocytes. To evaluate the effect of peptides on the immunosuppressive activity of the Karpas 299 cell line, a “mixed lymphocyte reaction” (MLR) assay was carried out using peripheral blood mononuclear cells (PBMCs) from two donors (previously tested to induce a strong MLR reaction in co-culture) (1 × 10^5 cells/well per each PBMC) in the presence or absence of Karpas 299 (1 × 10^4 cells/well). Peptides were added at 50 μM to the co-cultures to evaluate their capacity to restore the production of interferon-gamma (IFN-γ) inhibited by Karpas 299. After 48 hours, the supernatants were extracted to measure interferon-gamma (IFN-γ) by means of a commercial ELISA (Pharmingen, San Diego, CA, US). In vitro assays for Treg inhibition using natural Treg cells: Murine CD4+CD25+ (Treg cells), and CD4+CD25-T-cells (effector T cells) were purified from murine spleen cells by using a murine regulatory T-cell isolation kit (Miltenyi Biotec, Bergisch Gladbach, Germany) according to the manufacturer’s instructions. The purity of the resulting T-cell populations was confirmed to be >95% by flow cytometry. Inhibition of murine T regulatory cell function was measured in an in vitro assay of T-cell stimulation. Effector T cells (10^5 cells/well) from BALB/c mice were stimulated in vitro with 2, 5 μg/mL of anti-mouse CD3 antibody (Pharmingen) in the presence/absence of purified Treg cells (10^4 cells/well) and the indicated peptides (50 μM). T-cell proliferation was measured 3 days later as previously described. Percentage of Treg inhibition was calculated using the following formula: % inhibition= 100*((cpm of Teff&Treg co-cultures in the presence of peptide - cpm of Teff&Treg co-cultures)/(cpm of Teff - cpm of Teff&Treg co-cultures)). The Institutional Review Board on Human Subjects (Clínica Universidad de Navarra, Ref 2016.118) approved this research, and informed consent was obtained from all blood donors.

FOXP3/NFAT1 = test: FOXP3/NFAT interaction by Alphascreen; type: binding; details: alpha screen; Figure 6C
Protocol: (§2) The screening of peptide binders to FOXP3 was performed by surface plasmon resonance (SPR) using a ProteOn XPR36 (Bio-Rad, Hercules CA, USA) optical biosensor. Recombinant protein FOXP3-6His produced and purified from E-coli was immobilized covalently onto a GLC sensor chip (Bio-Rad) using the coupling reagents sulfo-NHS (N-Hydroxysulfosuccinimide) and EDC (1-Ethyl-3-(3-dimethylaminopropyl) carbodiimide, (Bio-Rad) as previously described. Peptide solutions (10 μM) were injected by triplicate in running buffer (phosphate-buffered saline, 0.005% (v/v) Tween 20, pH 7.4) at a flow of 30 μL/min. The interspot signal (obtained in the chip surface not immobilized with protein) was used as reference. FOXP3/NFAT1 and FOXP3/AML1 interactions were analyzed by Alphascreen technology as previously described according to the manufacturer’s protocol (Perkin Elmer, Benelux). Reactions were performed in a 40 μL final volume in 96-well Optiwell microtiter plates (Perkin Elmer). […] FOXP3/AML1 interaction was measured following a similar protocol using FOXP3-GST and AML1-His proteins. Exposure of the reaction to direct light was avoided as much as possible, and the emission of light from the acceptor beads was measured in the EnVision plate reader after the indicated incubation period (Perkin Elmer, Benelux).

Foxp3–NFAT interaction = test: Co-immunoprecipitation and Western blot of Flag-Foxp3 and HA-NFAT in HEK293 cells; type: cell-based; details: HEK293 cells transfected with Flag-Foxp3 and HA-NFAT, peptide 100 μM; Figure 7
Protocol: HEK293 cells were cultured in Dulbecco modified Eagle medium (Invitrogen) supplemented with 8% heat-inactivated fetal calf serum (FCS), penicillin, and streptomycin (Invitrogen) at 37 °C and 5% CO2. Plasmids cells were grown to 50% confluence in 6-well plates (Nunc) and transfected with a mixture of 2 μg of DNA plasmids (1 μg of FLAG-FOXP3 (expressing Foxp3 linked to the DYKDDDDK peptide tag and 1 μg of HA-NFAT expressing NFAT linked to the […] peptide tag), kindly provided by Dr Paul, Coffer, Utrech, The Netherlands)) and 8 μL PEI (polyethylenimine) overnight; the next day, cells were treated with 393–403 L, 397–406 C, or an irrelevant peptide at 100 μM. Twenty four hour later, HEK 293 cells were lysed in NP40 lysis buffer (0.05 M Tris-HCl pH 7.5, 0.5% Nonidet P40, 0.15 M NaCl, 0.01 M EDTA) containing a HALT^TM protease inhibitor cocktail (ThermoScientific), and immunoprecipitation was performed utilizing anti-FLAG coupled beads (Sigma) during 2 h at 4 C. Beads were washed 3x in lysis buffer, boiled, and samples were separated by SDS-PAGE, electrophoretically transferred to polyvinylidene difluoride membrane (Millipore, Bedford, MA), and hybridized with antibodies as indicated. Immunocomplexes were detected using enhanced chemiluminescence (Biorad).

FOXP3/AML1 [2] = test: FOXP3/AML1 interaction by Alphascreen; type: binding; details: Figure 3C
Protocol: as §2

FOXP3 homodimerization [3] = test: FOXP3 dimerization by Alphascreen; type: binding; details: alpha screen
FOXP3 homodimerization [4] = details: cited from earlier work
From the text: (§3) A P60 peptide optimization program including alanine scanning, the introduction of D-aminoacids, or head-to-tail cyclization allowed us to improve its stability and efficacy in vitro and in vivo [23].

FOXP3/AML1 [5] = details: cited from earlier work
From the text: as §3

4T1-FOXP3 cells = test: Proliferation of 4T1-Ctrl and 4T1-FOXP3 tumor cells in vitro; type: cell-based; details: peptide 50 μM, Figure 2C
Protocol: The cell line 4T1-FOXP3 expressing FOXP3 was generated. 4T1-WT cells were transfected with empty pcDNA3.1 or with pcDNA3.1 FOXP3, expressing FOXP3 gene and neomycin (which confers resistance to G418 antibiotic) to generate 4T1-Ctrl and 4T1-Foxp3 cells. Briefly, 8 × 10^5 cells were seeded in 6-well culture plates one day prior to transfection. The cultures were 60–80% confluent at the time of transfection. Cells were transfected with 5 ug plasmid DNA per well for 6 hours using lipofectimine 2000 transfection reagent (Invitrogen). After 48 hours, 0.3 mg/mL of G418 drug (GIBCO) was added to the culture during 14 days for the selection of resistant cells. These cells were used in vitro to measure the effect of peptides to overcome the proliferative capacity inhibited by FOXP3. In addition, 4T1-FOXP3 and 4T1-Ctrl cells were injected in vivo (10^5 cells/ mouse) subcutaneously or intravenously to compare their capacity to induce tumors and lung metastases. Murine Lewis lung carcinoma expressing OVA, LLCOVA were kindly provided by Dr. Daniel Ajona (CIMA). The murine colon adenocarcinoma cell line MC38, LLOOVA, 4T1-Ctrl, and 4T1-FOXP3 were cultured in mouse medium (RPMI 1640, 10% fetal calf serum (Sigma), 100 U/mL penicillin, 100 μg/mL streptomycin (Invitrogene), […] Gentamicin (Gibco), 2 mM L-Glutamine (Lifetechnologies), […] β-mercaptoethanol (Sigma), and fungizone (GIBCO). All cell lines were cultured at 37 °C in a humidified atmosphere with 6.5% CO2.

[6] = tested on: Karpas 299 human cell line; test: Mixed lymphocyte reaction with Karpas 299 Treg cell line, IFN-γ by ELISA; type: cell-based; details: MLR of PBMCs from two donors + Karpas 299, peptide 50 μM, 48 h
Protocol: as §1

Treg = details: cited from earlier work
Protocol: (§4) The P60 peptide was able to improve the antitumor effect of other immunotherapeutic approaches constituting a potential candidate drug to inhibit Treg activity. An alanine scanning was conducted to identify key positions within the P60 sequence for FOXP3 binding P60. The introduct ...

FOXP3 = details: cited from earlier work
Protocol: as §4

[7] = cited from earlier work
Protocol: as §4

T-cells = details: cited from earlier work
From the text: We focused on a peptide encompassing aminoacids 393–403, which correspond to a region implicated in FOXP/NFAT interaction, which is also key for Treg suppressive activity. FOXP3/NFAT interaction can regulate NFAT activity by (i) competing for binding to DNA [60, 61], (ii) by sequestering NFAT or other NFAT partners, or (iii) by forming a cooperative complex. The cooperative complex between FOXP3 and NFAT is required to repress the expression of the cytokine IL2, upregulate the expression of the Treg markers CTLA4 and CD25, and confer suppressor function. ...

hepatocellular carcinoma = details: murine model of hepatocellular carcinoma; cited from earlier work
From the text: (§5) We have also focused on the screening campaign of peptides derived from the FOXP3 FKH domain (Section 3.3). Although we identified several peptides encompassing the intermediate region of FKH with high capacity to bind to FOXP3, we focused on peptide […]-407, based on its ability to inhibit Treg activity in vitro.

FOXP3:NFAT = details: cited from earlier work
From the text: as §5

[8] = cited from earlier work; remark: listed apart in the source
From the text: as §5

In the case of “397–406 C: macrocycle consisting of a head-to-tail cyclization of peptide 397–406 (RVESEKGAVW; head-to-tail (backbone) cyclization)”, the “Treg inhibitory capacity in vitro (proliferation of effector T cells with anti-CD3 in presence of Treg)” value (“Treg inhibitory capacity in vitro” below) [1] is reported as “improved the Treg inhibitory capacity”, the “disruption of FOXP3-NFAT heterodimerization” value (FOXP3/NFAT1) is reported as “retained the activity to impair Foxp3/NFAT interaction” and the “interaction between Foxp3 and NFAT by co-immunoprecipitation” value (Foxp3–NFAT interaction) is reported as “able to reduce significantly the interaction”.
With SLFAVRRHLWGSHGN [F304–318] the “disruption of FOXP3/AML1 heterodimerization” value (FOXP3/AML1 [2]) was “able to impair FOXP3/AML1 heterodimerization” and the “Treg inhibitory capacity in vitro” value [1] was “able to inhibit Treg activity”.
In the case of “KEKLSAMQAHLAGKM [p250–265, 15-mer peptide from the leuzin zipper domain of FOXP3]”, the “inhibitory activity on FOXP3 homodimerization” value (FOXP3 homodimerization [3]) is reported as “could not demonstrate an inhibitory activity” and the “Treg inhibitory capacity in vitro” value [1] is reported as “able to fully restore the proliferative capacity of effector T-cells”.
For RDFQSFRKMWPFFAM [p60], the FOXP3 dimerization (FOXP3 homodimerization [4]) is listed as “impairing FOXP3 dimerization”, the FOXP3/AML1 interaction (FOXP3/AML1 [5]) is listed as “impairing” and the “effect on tumor-suppressor activity of FOXP3 (proliferation of 4T1-FOXP3 versus 4T1-Ctrl cells)” value (4T1-FOXP3 cells) is listed as “does not alter the antitumor activity of FOXP3”. The “Treg inhibitory capacity (Karpas MLR assays)” value [6] was “potential Treg inhibitory capacity”, the “Treg activity in vitro and in vivo” value (Treg) was “inhibit Treg activity in vitro and in vivo” and the FOXP3 nuclear translocation (FOXP3) was “impair FOXP3 nuclear translocation”. The “ability to enter into the cells” value [7] was “able to enter into the cells”.
For “KCFVRVESEKG [F393–403, truncated version of peptide F393–407]”, the “Treg inhibitory capacity in vitro” value [1] is given as “able to inhibit Treg activity in vitro”, the “T-cell proliferation and cytokine production in response to TCR stimulation” value (T-cells) is given as “enhanced T-cell proliferation and the production of cytokines IL-2, IFN-γ, or IL-17” and the “antitumor activity of in vivo peptide administration” value (hepatocellular carcinoma) is given as “had antitumor activity”. For the same substance, the “FOXP3:NFAT interaction” value (FOXP3:NFAT) was “able to inhibit FOXP3:NFAT interaction”, the pharmacokinetics in vivo [8] was “poor pharmacokinetics in vivo” and the “interaction between Foxp3 and NFAT by co-immunoprecipitation” value (Foxp3–NFAT interaction) was “able to reduce significantly the interaction”.
